Data: ChEMBL document CHEMBL1152560, “Substituted 2-arylbenzothiazoles as kinase inhibitors: hit-to-lead optimization” (Bioorg Med Chem, 2009)

What was measured:
[1] = target: Serine/threonine-protein kinase MRCK beta (Homo sapiens) (UniProt Q9Y5S2); experiment: Residual activity of CDC42BPB at 10 uM by microplate scintillation counting
[2] = target: Ribosomal protein S6 kinase alpha-5 (Homo sapiens) (UniProt O75582); experiment: Residual activity of RPS6KA5 at 1 uM by microplate scintillation counting
[3] = target: Protein kinase C theta type (Homo sapiens) (UniProt Q04759); experiment: Residual activity of PKCtheta at 10 uM by microplate scintillation counting
[4] = target: Serine/threonine-protein kinase Nek7 (Homo sapiens) (UniProt Q8TDX7); experiment: Residual activity of NEK7 at 1 uM by microplate scintillation counting
[5] = target: Serine/threonine-protein kinase PAK 4 (Homo sapiens) (UniProt O96013); experiment: Residual activity of PAK4 at 1 uM by microplate scintillation counting
[6] = target: Protein-tyrosine kinase 2-beta (Homo sapiens) (UniProt Q14289); experiment: Residual activity of PYK2 at 0.1 uM by microplate scintillation counting
[7] = target: T1, cGMP-dependent protein kinase 1 (Homo sapiens) (UniProt Q13976); experiment: Residual activity of PRKG1 at 1 uM by microplate scintillation counting
T1 sequence (whole entry): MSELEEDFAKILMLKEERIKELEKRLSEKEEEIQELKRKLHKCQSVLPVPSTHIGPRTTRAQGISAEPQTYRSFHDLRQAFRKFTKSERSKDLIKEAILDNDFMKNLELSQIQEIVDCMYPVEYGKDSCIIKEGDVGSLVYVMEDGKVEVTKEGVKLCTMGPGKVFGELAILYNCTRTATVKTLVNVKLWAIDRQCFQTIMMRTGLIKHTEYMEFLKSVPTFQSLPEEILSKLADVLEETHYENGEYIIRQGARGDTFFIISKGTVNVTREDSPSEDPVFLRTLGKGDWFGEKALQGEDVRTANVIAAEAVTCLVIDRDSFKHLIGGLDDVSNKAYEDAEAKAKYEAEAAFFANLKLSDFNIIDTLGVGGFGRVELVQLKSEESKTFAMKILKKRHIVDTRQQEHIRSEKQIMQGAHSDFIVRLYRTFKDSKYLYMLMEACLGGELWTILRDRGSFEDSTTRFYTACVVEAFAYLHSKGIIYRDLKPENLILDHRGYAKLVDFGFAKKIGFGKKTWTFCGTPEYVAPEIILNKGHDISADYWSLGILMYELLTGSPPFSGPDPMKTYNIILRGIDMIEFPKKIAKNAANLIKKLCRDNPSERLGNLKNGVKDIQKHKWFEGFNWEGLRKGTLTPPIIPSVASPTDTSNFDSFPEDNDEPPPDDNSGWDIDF

[8] = target: T2, Ephrin type-A receptor 1 (Homo sapiens) (UniProt P21709); experiment: Residual activity of EPHA1 at 0.1 uM by microplate scintillation counting
T2 sequence (whole entry): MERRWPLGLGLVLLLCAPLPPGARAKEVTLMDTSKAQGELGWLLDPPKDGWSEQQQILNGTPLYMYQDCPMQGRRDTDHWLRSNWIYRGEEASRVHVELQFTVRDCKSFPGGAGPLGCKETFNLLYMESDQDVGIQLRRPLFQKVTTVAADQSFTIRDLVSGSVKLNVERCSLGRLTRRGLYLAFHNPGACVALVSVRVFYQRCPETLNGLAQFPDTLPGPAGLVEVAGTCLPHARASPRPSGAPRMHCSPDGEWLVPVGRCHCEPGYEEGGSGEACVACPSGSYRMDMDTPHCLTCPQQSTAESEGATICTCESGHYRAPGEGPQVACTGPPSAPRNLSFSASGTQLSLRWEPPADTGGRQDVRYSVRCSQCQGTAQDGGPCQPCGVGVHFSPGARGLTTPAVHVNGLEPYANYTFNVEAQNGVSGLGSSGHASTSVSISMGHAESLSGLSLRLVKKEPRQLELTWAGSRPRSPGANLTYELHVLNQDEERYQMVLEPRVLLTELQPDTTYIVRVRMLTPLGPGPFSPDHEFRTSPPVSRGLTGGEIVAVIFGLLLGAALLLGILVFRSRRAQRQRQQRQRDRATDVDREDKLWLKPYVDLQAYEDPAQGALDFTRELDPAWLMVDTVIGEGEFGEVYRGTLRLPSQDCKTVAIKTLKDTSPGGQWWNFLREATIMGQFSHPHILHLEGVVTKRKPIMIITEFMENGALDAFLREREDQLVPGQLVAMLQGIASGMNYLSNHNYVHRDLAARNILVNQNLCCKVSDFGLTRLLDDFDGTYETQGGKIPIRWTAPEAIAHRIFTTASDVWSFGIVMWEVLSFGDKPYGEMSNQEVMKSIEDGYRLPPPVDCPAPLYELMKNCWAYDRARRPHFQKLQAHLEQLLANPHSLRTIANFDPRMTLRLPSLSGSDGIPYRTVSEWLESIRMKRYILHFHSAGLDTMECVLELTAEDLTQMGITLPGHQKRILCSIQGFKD

[9] = target: Protein kinase C beta type (Homo sapiens) (UniProt P05771); experiment: Residual activity of PKCbeta2 at 0.1 uM by microplate scintillation counting
[10] = target: T1, cGMP-dependent protein kinase 1 (Homo sapiens); experiment: Residual activity of PRKG1 at 0.1 uM by microplate scintillation counting

Chain of Serine/threonine-protein kinase Nek7 (Homo sapiens) (Q8TDX7 whole entry, looked up): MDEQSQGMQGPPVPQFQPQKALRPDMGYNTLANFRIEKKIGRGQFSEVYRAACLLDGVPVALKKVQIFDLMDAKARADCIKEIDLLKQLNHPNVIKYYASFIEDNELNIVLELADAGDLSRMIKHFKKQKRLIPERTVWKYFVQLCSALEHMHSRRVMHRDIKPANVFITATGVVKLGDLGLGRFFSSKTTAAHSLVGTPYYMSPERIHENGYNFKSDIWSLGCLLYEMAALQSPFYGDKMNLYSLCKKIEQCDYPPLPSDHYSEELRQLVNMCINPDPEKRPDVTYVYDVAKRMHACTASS
Chain of Serine/threonine-protein kinase PAK 4 (Homo sapiens) (O96013 whole entry, looked up): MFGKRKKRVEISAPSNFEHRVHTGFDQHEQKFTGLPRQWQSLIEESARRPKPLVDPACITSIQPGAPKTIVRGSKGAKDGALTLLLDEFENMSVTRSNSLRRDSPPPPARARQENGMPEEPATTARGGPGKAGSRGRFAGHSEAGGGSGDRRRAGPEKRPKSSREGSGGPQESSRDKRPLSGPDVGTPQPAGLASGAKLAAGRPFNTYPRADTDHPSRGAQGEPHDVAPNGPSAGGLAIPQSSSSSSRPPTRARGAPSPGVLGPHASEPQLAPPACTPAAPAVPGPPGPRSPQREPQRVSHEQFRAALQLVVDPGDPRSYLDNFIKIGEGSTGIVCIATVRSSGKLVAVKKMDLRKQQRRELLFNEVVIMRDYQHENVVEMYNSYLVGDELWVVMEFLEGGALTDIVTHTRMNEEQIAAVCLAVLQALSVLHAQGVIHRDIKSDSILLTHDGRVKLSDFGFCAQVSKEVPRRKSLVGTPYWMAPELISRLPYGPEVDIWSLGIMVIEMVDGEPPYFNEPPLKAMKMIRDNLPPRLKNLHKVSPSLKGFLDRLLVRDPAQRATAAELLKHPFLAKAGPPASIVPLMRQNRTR
Chain of Protein kinase C theta type (Homo sapiens) (Q04759 whole entry, looked up): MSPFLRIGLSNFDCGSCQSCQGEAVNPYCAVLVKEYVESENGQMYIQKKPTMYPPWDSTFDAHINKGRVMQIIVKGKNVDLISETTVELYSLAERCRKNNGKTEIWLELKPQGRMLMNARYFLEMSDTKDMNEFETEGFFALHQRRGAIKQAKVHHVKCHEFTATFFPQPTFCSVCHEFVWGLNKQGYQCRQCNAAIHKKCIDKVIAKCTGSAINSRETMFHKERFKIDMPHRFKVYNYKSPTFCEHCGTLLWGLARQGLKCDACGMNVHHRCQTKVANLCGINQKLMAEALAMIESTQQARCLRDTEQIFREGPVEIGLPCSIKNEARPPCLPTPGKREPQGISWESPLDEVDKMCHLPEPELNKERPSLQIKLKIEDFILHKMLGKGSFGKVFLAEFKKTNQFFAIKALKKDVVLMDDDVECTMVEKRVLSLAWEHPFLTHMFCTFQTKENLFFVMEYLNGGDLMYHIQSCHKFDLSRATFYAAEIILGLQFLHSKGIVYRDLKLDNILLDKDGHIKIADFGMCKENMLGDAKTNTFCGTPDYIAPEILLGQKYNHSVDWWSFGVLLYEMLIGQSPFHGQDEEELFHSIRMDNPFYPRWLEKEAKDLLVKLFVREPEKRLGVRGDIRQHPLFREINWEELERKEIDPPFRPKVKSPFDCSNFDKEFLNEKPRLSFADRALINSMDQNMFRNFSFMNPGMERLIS
Chain of Protein kinase C beta type (Homo sapiens) (P05771 2-671 limits assumed): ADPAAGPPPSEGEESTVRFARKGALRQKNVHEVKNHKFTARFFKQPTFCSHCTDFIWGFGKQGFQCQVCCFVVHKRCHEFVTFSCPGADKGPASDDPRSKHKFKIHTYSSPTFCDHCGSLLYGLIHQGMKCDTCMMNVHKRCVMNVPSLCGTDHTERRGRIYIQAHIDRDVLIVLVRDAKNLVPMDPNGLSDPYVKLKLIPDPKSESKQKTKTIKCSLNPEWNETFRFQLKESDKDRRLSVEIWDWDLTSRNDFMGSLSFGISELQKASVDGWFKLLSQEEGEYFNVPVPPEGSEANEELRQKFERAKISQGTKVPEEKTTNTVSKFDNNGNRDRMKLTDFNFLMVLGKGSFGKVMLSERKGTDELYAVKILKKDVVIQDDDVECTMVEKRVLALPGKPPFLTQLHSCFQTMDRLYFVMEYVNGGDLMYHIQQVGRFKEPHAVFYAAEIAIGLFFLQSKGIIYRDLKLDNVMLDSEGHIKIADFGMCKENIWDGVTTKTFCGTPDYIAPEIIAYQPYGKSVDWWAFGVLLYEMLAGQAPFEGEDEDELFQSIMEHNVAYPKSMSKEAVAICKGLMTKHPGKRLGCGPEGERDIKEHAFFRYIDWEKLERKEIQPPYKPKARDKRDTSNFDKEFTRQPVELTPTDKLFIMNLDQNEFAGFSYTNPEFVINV
Chain of Serine/threonine-protein kinase MRCK beta (Homo sapiens) (Q9Y5S2 whole entry): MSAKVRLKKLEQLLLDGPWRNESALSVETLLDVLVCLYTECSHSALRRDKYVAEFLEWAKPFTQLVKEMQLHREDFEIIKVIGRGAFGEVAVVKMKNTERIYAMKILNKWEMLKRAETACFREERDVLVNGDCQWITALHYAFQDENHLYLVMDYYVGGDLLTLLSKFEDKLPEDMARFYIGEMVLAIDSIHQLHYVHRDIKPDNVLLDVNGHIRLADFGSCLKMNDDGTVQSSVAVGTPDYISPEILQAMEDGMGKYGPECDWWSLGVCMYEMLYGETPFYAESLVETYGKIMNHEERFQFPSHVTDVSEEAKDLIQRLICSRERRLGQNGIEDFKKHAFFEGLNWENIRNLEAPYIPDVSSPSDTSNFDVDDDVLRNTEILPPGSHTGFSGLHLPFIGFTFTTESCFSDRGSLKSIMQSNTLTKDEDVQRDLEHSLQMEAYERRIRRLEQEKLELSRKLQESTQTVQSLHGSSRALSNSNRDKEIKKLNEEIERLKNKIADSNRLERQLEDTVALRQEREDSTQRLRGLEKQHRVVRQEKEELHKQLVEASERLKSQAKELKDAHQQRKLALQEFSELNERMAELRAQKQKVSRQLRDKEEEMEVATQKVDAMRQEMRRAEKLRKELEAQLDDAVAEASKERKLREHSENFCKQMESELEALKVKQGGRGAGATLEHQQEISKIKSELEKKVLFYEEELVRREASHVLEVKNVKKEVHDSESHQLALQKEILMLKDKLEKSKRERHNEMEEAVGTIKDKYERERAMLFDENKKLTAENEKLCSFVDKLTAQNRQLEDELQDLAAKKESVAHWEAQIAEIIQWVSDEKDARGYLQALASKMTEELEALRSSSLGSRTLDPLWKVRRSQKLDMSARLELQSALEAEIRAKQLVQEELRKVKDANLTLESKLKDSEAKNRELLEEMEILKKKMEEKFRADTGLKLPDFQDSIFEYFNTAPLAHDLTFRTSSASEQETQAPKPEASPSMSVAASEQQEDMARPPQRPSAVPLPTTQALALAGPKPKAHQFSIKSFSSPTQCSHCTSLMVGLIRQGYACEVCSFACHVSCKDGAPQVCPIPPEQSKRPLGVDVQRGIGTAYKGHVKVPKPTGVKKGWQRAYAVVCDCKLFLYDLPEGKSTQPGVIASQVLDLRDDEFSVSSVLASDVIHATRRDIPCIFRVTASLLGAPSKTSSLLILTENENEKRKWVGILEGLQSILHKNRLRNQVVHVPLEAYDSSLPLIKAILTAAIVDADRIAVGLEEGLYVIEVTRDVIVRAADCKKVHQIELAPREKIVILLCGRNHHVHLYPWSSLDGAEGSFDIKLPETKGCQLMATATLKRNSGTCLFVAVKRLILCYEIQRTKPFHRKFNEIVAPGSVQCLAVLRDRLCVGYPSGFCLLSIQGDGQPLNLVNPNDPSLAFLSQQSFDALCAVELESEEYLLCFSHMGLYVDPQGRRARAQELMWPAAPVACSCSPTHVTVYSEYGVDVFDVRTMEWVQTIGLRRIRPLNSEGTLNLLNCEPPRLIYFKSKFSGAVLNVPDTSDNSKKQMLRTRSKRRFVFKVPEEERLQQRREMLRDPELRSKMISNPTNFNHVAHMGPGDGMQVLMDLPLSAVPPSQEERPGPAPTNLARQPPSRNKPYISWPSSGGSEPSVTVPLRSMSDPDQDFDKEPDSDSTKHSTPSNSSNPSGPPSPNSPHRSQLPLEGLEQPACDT
Chain of Ribosomal protein S6 kinase alpha-5 (Homo sapiens) (O75582 whole entry, looked up): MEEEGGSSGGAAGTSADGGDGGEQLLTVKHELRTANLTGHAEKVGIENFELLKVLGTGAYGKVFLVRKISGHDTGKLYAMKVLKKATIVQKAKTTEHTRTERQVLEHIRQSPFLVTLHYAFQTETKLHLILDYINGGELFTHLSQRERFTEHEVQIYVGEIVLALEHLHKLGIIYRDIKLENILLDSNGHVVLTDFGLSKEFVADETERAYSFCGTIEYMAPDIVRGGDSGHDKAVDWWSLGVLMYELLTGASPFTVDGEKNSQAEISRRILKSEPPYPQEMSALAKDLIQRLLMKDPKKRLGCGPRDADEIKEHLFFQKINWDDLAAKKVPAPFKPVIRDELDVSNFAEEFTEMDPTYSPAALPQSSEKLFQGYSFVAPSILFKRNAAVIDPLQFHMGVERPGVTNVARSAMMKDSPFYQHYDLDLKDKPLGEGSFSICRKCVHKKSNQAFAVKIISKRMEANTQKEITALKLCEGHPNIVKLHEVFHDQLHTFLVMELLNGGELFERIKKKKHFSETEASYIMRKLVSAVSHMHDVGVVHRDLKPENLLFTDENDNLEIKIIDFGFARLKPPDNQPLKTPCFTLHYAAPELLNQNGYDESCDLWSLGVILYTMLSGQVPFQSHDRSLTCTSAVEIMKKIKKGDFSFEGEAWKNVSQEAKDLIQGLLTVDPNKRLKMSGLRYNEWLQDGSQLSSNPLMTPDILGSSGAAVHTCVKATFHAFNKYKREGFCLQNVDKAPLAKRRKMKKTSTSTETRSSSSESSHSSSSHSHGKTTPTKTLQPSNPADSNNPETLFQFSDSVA

| residual activity [1] | residual activity [2] | residual activity [3] | residual activity [4] | residual activity [5] | residual activity [6] | residual activity [7] | residual activity [8] | residual activity [9] | residual activity [10] | Compound |
| --- | --- | --- | --- | --- | --- | --- | --- | --- | --- | --- |
| 110% | 81% | 96% | 95% | 105% | 102% | 87% | 112% | 101% | 97% | COc1cc2c(Oc3ccc(-c4nc5ccccc5s4)cc3)ncnc2cc1OCCCN1CCN(C)CC1 |
| 82% | 87% | 64% | 104% | 112% | 103% | 101% | 102% | 99% | 90% | COc1cc2c(Oc3ccc(-c4nc5ccccc5s4)cc3)ncnc2cc1OCCCN1CCCC1 |
| 102% | 71% | 87% | 103% | 99% | 98% | 97% | 106% | 87% | 84% | COc1cc2c(Oc3ccc(-c4nc5ccccc5s4)cc3F)ncnc2cc1OCCCN1CCN(C)CC1 |
